Reference: patent EP2114387B1, “USE OF COMPOSITIONS CONTAINING AT LEAST ONE LIGNANE AND/OR NEOLIGNANE FOR MODULATING TESTOSTERONE LEVELS” (Europe Finances, priority 2007, dated 2008)
Where two headings read alike, the source gives them in different places.

Columns and labels:
[1] = biological target: T1, 5-α reductase type I (Homo sapiens, UniProt P18405); test: Inhibition of 5-alpha-reductase type I in HEK I cells (conversion of [4-14C]-androstenedione to dihydroandrostenedione); type: cell-based
T1 construct: expressed in transfected cells; host or cells: HEK I cells (HEK line kept under Geneticin-418 selection)
T1 sequence (P18405 1-259): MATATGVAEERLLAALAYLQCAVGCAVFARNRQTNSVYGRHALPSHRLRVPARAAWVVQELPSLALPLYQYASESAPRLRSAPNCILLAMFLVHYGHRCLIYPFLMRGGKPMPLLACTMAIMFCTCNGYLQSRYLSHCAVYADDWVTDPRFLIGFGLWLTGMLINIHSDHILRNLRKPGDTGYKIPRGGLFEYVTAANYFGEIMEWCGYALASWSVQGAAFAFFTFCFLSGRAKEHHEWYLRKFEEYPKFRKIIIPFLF
Protocol: Les cellules de type HEK I et HEK II ont été utilisées dans du DMEM (pH 7.4) avec 10 % FCS, Penicillin/Streptomycin (100 U/mL and 100 µg/mL) et 0.5 mg/mL de Geneticin-418-sulfate. Les tests d'inhibition ont été réalisés à des concentrations cellulaires de 0.25 x 106 cellules par 1.9 cm^2 et incubées pendant 20 h, 5 % CO2 à 37 °C.

[2] = biological target: T2, 5-α reductase type II (Homo sapiens, UniProt P31213); test: Inhibition of 5-alpha-reductase type II in HEK II cells (conversion of [4-14C]-androstenedione to dihydroandrostenedione); type: cell-based; conditions: for % inhibition de la 5-α reductase type II: n.i. = pas d'inhibition observée
T2 construct: expressed in transfected cells; host or cells: HEK II cells (HEK line kept under Geneticin-418 selection)
T2 sequence (P31213 1-254): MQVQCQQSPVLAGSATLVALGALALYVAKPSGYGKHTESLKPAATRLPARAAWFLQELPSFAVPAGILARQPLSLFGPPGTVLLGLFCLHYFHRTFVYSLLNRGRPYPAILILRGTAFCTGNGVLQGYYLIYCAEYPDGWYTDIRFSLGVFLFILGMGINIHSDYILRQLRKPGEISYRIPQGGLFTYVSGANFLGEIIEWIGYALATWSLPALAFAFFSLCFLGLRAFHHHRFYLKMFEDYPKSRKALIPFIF
Protocol: Les cellules de type HEK I et HEK II ont été utilisées dans du DMEM (pH 7.4) avec 10 % FCS, Penicillin/Streptomycin (100 U/mL and 100 µg/mL) et 0.5 mg/mL de Geneticin-418-sulfate. Les tests d'inhibition ont été réalisés à des concentrations cellulaires de […] cellules par 1.9 cm^2 et incubées pendant 20 h, 5 % CO2 à 37 °C.
Les composés sont dissous dans le DMSO et dilués avec le DMEM pour atteindre les concentrations finales de 100 µM, 10 µM et 1 µM.
Les mesures ont été réalisées grâce à un Phospholmager et les spots correspondant au [4-14C]-androstenedione (A) et au [4-14C]-dihydroandrostenedione (DHA) furent enregistrés avec le logiciel correspondant.
Les calculs ont été réalisés selon la formule suivante: % conversion = (PSL(DHA))/(PSL(DHA+A)) × 100 [formula]
Le pourcentage d'inhibition a été calculé sur une moyenne de deux mesures.
La référence est le finastéride, un médicament inhibiteur des 5α-reductase qui est utilisé comme contrôle positif à deux concentrations de 800 nM et 100 nM, correspondant à l'IC50 du finasteride pour la 5α-reductase de type I et la 5α-reductase de type II, respectivement.

[3] = biological target: T1, 5-α reductase type I; conditions: reference value used to choose the positive control concentration; read-out: IC50 du finasteride; cited from earlier work
[4] = biological target: T2, 5-α reductase type II; conditions: reference value used to choose the positive control concentration; read-out: IC50 du finasteride; cited from earlier work
[5] = tested on: taux plasmatique de testostérone; test: Plasma testosterone level in mice after chronic i.p. administration (ELISA); type: in vivo, souris SWISS; conditions: young male mice, figure 1, result in words
Protocol: […] […] • Letrozole • Dose étudiée : 2 mg/kg. • Mise en solution extemporanée dans le méthylcellulose • Honokiol • Doses étudiée : • Honokiol : 0.01, 0.05, 0.5, 2, 5, 10 mg/kg. • Mise en solution extemporanée dans le méthylcellulose • Voie d'administration : […].). • Volume d'injection : 10 ml/kg. Les dosages ont é[…] selon le protocole du kit ELISA commercialisé par la société AbCys S.A., France.

Row | Compound | inhibition at 0.1 µM ([1]; 100 nM, mean of two measurements, read-out: % inhibition de la 5-α reductase type I) [%] | inhibition at 0.8 µM ([1]; 800 nM, mean of two measurements, read-out: % inhibition de la 5-α reductase type I) [%] | inhibition at 0.1 µM ([2]; 100 nM, mean of two measurements, read-out: % inhibition de la 5-α reductase type II) [%] | inhibition at 0.8 µM ([2]; 800 nM, mean of two measurements, read-out: % inhibition de la 5-α reductase type II) [%] | IC50 [3] [µM] | IC50 [4] [µM] | inhibition at 1 µM ([1]; 1 µM, mean of two measurements, read-out: % inhibition de la 5-α reductase type I) [%] | inhibition at 10 µM ([1]; 10 µM, mean of two measurements, read-out: % inhibition de la 5-α reductase type I) [%] | inhibition at 100 µM ([1]; 100 µM, mean of two measurements, read-out: % inhibition de la 5-α reductase type I) [%] | sélectivité 5-α réductase de type I / type II ([1]; conclusion in words) | IC50 ([1]; estimate from the dose-dependent inhibition) [µM] | % inhibition de la 5-α reductase type II ([2]; 1 µM) | % inhibition de la 5-α reductase type II ([2]; 10 µM) | % inhibition de la 5-α reductase type II ([2]; 100 µM) | affinité pour la 5-α réductase de type II ([2]; result in words) | taux de testostérone plasmatique [5]
1 | CC(C)(C)NC(=O)[C@H]1CC[C@H]2[C@@H]3CC[C@H]4NC(=O)C=C[C@]4(C)[C@H]3CC[C@]12C [Finasteride, finastéride, reference compound] | 11 | 48 | 55 | 89 | 0.8 | 0.1 | – | – | – | – | – | – | – | – | – | –
2 | C=CCc1ccc(O)c(-c2ccc(O)c(CC=C)c2)c1 [Honokiol, honokiol] | – | – | – | – | – | – | 1 | 11 | 64 | inhibiteur sélectif de la 5-α réductase de type I | ~80 | n.i. | n.i. | n.i. | aucune affinité n'est observée | modulation du taux de testostérone en fonction des doses administrées
